Assay results from PubChem BioAssay (NCI).
Several values for one entry are separate records, joined by “and”; a condition that tells them apart may be missing. Equal entries are not always repeated.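 Where inhibition never reached the appropriate level, the endpoint shown equals the highest concentration tested. Otherwise, values were interpolated linearly from a five-concentration, 48-hour dose response in 96-well plates. Abbreviation: GI50, concentration required for 50% inhibition of growth. TGI marks complete inhibition of growth.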

Experiments:
Test in all cases: inhibition of tumour cell growth, NCI panel, 48 h
NCI-H522 lung = system: NCI-H522 lung
RPMI-8226 leukemia = system: RPMI-8226 leukemia
HCC-2998 colon = system: HCC-2998 colon
UO-31 renal = system: UO-31 renal
U251 CNS = system: U251 CNS
UACC-257 melanoma = system: UACC-257 melanoma
COLO 205 colon = system: COLO 205 colon
SK-MEL-28 melanoma = system: SK-MEL-28 melanoma
MDA-MB-231 breast = system: MDA-MB-231 breast
EKVX NSCLC = system: EKVX NSCLC

| Structure (SMILES) | GI50 (NCI-H522 lung) | TGI (NCI-H522 lung) | GI50 (RPMI-8226 leukemia) | TGI (RPMI-8226 leukemia) | GI50 (HCC-2998 colon) | TGI (HCC-2998 colon) | GI50 (UO-31 renal) | TGI (UO-31 renal) | GI50 (U251 CNS) | TGI (U251 CNS) | GI50 (UACC-257 melanoma) | TGI (UACC-257 melanoma) | GI50 (COLO 205 colon) | TGI (COLO 205 colon) | GI50 (SK-MEL-28 melanoma) | TGI (SK-MEL-28 melanoma) | GI50 (MDA-MB-231 breast) | TGI (MDA-MB-231 breast) | GI50 (EKVX NSCLC) | TGI (EKVX NSCLC) |
| --- | --- | --- | --- | --- | --- | --- | --- | --- | --- | --- | --- | --- | --- | --- | --- | --- | --- | --- | --- | --- |
| Cc1ccc(S(=O)(=O)OCC(=O)Nc2ccc(C(=O)O)c(O)c2)cc1 | 11.9 µM | 34.6 µM | 138 µM | 346 µM | 41 µM | 88.1 µM | 45.1 µM | 173 µM | 16.3 µM | 34.5 µM | 36.7 µM | 200 µM | 113 µM | 259 µM | 31.8 µM | 94.5 µM | 25.9 µM | 99.6 µM | 165 µM | 332 µM |
| O=c1c2ccccc2nc2n1CCc1c-2[nH]c2cc3c(cc12)OCO3 |  | > 25 µM |  | > 25 µM |  | > 25 µM |  | > 25 µM |  | > 25 µM |  | > 25 µM |  | > 25 µM |  | > 25 µM |  | > 25 µM |  | > 25 µM |
| CCC(CC)c1cc(N[C@H]2CC[C@H](N)C2)n2nccc2n1 | 0.281 µM | 1.55 µM | 2.61 µM | > 100 µM | 1.52 µM | 12 µM | 2.08 µM | 5.69 µM | 0.858 µM | > 100 µM | 1.84 µM | 5.87 µM | 0.732 µM | 2.41 µM | 1.93 µM | 5.24 µM | 1.05 µM | > 100 µM | 1.7 µM | 5.16 µM |
| CON=C1C[C@]2(C[C@@H]3C[C@@H](C/C=C(\C)C[C@@H](C)/C=C/C=C4\CO[C@@H]5[C@H](O)C(C)=C[C@@H](C(=O)O3)[C@]45O)O2)O[C@H](/C(C)=C/C(C)C)[C@H]1C | 12 µM | 26.1 µM | 4.23 µM | 53.6 µM | 12.1 µM | 26.9 µM | 11.2 µM | 23.3 µM | 11.3 µM | 24.3 µM | 16.9 µM | 32.9 µM | 13.7 µM | 28.5 µM | 17.5 µM | 31.7 µM | 11.2 µM | 24.9 µM | 6.99 µM | 24 µM |
| CC(C)(C)[Si](C)(C)OC1[C@@H](O[Si](C)(C)C(C)(C)C)[C@@H](CNC(=O)NC(=O)NC(=O)CCl)O[C@H]1n1cnc2c(NC(=O)Nc3ccccc3)ncnc21 (stereo partly drawn) | 0.282 µM | 0.572 µM | 1.56 µM | 5.95 µM | 8.74 µM | 18.6 µM | 0.959 µM | 1.89 µM | 1.56 µM | 4.22 µM | 5.64 µM | 13.2 µM | 6.3 µM | 13 µM | 8.78 µM | 17.8 µM | 1.31 µM | 3.76 µM | 1.69 µM | 6.54 µM |
| C=C1C[C@@H](O)[C@@H](Br)C(C)(C)[C@]12CCC(C)(Br)C(Cl)C2 (stereo partly drawn) | 17.4 µM | > 50 µM and 32.1 µM | 12.6 µM | 50 µM and 33.3 µM | 17.1 µM | > 50 µM and 30.8 µM | 25.4 µM | > 50 µM and 43.7 µM | 17.7 µM | > 50 µM and 31.5 µM | 18.6 µM | > 50 µM and 34.2 µM | 0.627 µM | 1.71 µM and 2.09 µM | 18 µM | > 50 µM and 36.8 µM | 16.8 µM | > 50 µM and 31.5 µM | 2.54 µM | 50 µM and 15.2 µM |
| CCCCCCCCCCCCNC(=O)N[C@H](C(=O)N[C@H]1/C=C/CCNC(=O)/C=C/[C@H](C)NC1=O)C(C)C | 0.0244 µM | 0.0647 µM | 0.0309 µM | 1 µM | 0.0239 µM | 0.0562 µM | 32.2 µM | > 100 µM | 0.0412 µM | 0.209 µM | 0.269 µM | 1.85 µM | 0.0309 µM | 0.109 µM | 0.208 µM | 0.708 µM | 0.0709 µM | 0.277 µM | 0.477 µM | 12.6 µM |
| C[C@]12CCCN1CC1=NNC(=O)c3cc(F)cc4[nH]c2c1c34 | 21.9 µM | 63.6 µM | 19.1 µM | 52.3 µM | 25.1 µM | 91.6 µM | 16 µM | > 100 µM | 14.1 µM | > 100 µM | 25.1 µM | 73.6 µM | 14.6 µM | 40.6 µM | 24.9 µM | 87.2 µM | 18 µM | 66.5 µM | 13.6 µM | 49.7 µM |
| O=C(O)c1ccc(NCc2nc3ccccc3[nH]2)cc1 | > 100 µM | > 100 µM | > 100 µM | > 100 µM | > 100 µM | > 100 µM | > 100 µM | > 100 µM | > 100 µM | > 100 µM | > 100 µM | > 100 µM | > 100 µM | > 100 µM | > 100 µM | > 100 µM | > 100 µM | > 100 µM | > 100 µM | > 100 µM |
| COc1ccc(Cc2cc(OC)c(OC)c(OC)c2)cc1 |  | 0.798 µM |  | 39.1 µM |  | 1.4 µM |  | 90.5 µM |  | 34.3 µM |  | > 71.8 µM |  | 1.51 µM |  | > 100 µM |  | > 30.7 µM |  | > 100 µM |
| CN1C(=O)/C(=C2\S/C(=N\c3nnc(-c4ccccc4)o3)NC2=O)c2ccccc21 | > 100 µM | > 100 µM | > 100 µM | > 100 µM | > 100 µM | > 100 µM | > 100 µM | > 100 µM | 66.4 µM | > 100 µM | 34.4 µM | > 100 µM | > 100 µM | > 100 µM | > 100 µM | > 100 µM | > 100 µM | > 100 µM | > 100 µM | > 100 µM |
| CCC1=C[C@@H]2CN(C1)Cc1c([nH]c3ccccc13)[C@@](C(=O)OC)(c1cc3c(cc1OC)N(C)[C@H]1[C@@](O)(C(=O)OC)[C@H](OC(C)=O)[C@]4(CC)C=CCN5CC[C@]31[C@@H]54)C2 | < 0.0227 µM | > 31.8 µM | < 0.01 µM |  | < 0.011 µM | 1.86 µM | 1.02 µM | 18.6 µM | < 0.01 µM | 8.42 µM |  |  | < 0.01 µM | 0.0775 µM | < 0.01 µM | 18.2 µM | < 0.018 µM | 8.04 µM | < 0.01 µM | 18.8 µM |
| C=C[C@H]1CN2CCc3c([nH]c4c([C@@H]5CCCN5C)c(O)ccc34)[C@@H]2C[C@@H]1C[C@H]1c2[nH]c3ccccc3c2CCN1C |  | 3.66 µM | 1.94 µM |  | 0.142 µM | 0.297 µM | 1.42 µM and 1.44 µM | 2.8 µM [middle of 4 runs] |  | 2.94 µM and 2.95 µM |  |  |  | 3.09 µM and 2.64 µM and 3.04 µM |  | 2.98 µM and 3.3 µM |  | 3.16 µM and 3.46 µM |  | 2.94 µM and 3.07 µM |
